Literature values, collected in US20130064804A1, “BIO-REPLENISHMENT (BioRep) FOR IMPROVING SLEEP ARCHITECTURE” (Naidu LP, priority 2011, published 2013).

Tests used:
[1] = in vivo
[2] = typical dose (1 to 3 mg)

Compound | first-pass: fraction metabolized in the liver [1] | elevation of blood melatonin levels above normal [2]
C[S+](CC[C@H](N)C(=O)O)C[C@H]1O[C@@H](n2cnc3c(N)ncnc32)[C@H](O)[C@@H]1O (some centres unmarked) [SAMe, S-adenosylmethionine] | approximately 50% | –
COc1ccc2[nH]cc(CCNC(C)=O)c2c1 [melatonin, N-acetyl-5-methoxytryptamine] | – | 1 to 20 times
